Consider six compounds from patent US10428104B2, “Substituted nucleoside derivatives useful as anticancer agents” (Pfizer Inc., priority 2015, dated 2019).

Molecules are shown by their SMILES.

Experiment [1] addresses PRMT5/MEP50 protein complex (Homo sapiens (Human), UniProt O14744). The experiment in a line: PRMT5 biochemical assay (3H-SAM methylation of H4(1-21) peptide, filter plate scintillation counting). The conditions noted are these: PRMT5 enzyme inhibition; 10 nM PRMT5/MEP50 complex, 200 nM H4(1-21) peptide, 1 uM SAM, 25 minute incubation at room temperature. The method, boiled down: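 Flag-PRMT5/MEP50 was co-expressed in Sf21 cells and Flag-affinity purified. Reactions used 10 nM complex, 200 nM H4(1-21) peptide and 1 uM 3H-SAM (final) in 50 mM Tris pH 8.5, 50 mM NaCl, 5 mM MgCl2, 1 mM EDTA and 1 mM TCEP, run 25 min at room temperature. Reactions were TCA-stopped, filter-captured and scintillation-counted; IC50 came from a 4-parameter fit.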

For experiment [2], the system named is A549 lung adenocarcinoma cells. The experiment in a line: A549 proliferation assay (Cell Titer Glo, 7 days). In kind it is cell-based. The conditions noted are these: Homo sapiens, 168 h, 7 days with compound, cell viability by Cell Titer Glo (ATP). The procedure: A549 lung adenocarcinoma cells (American Type CuIture Collection) were maintained in DMEM growth media (Life Technologies) supplemented with 10% v/v heat inactivated fetal bovine serum (Sigma) and cultured at 37° C., 5% CO2. Exponentially growing A549 cells were plated in 96-well black tissue culture treated plates (Corning) at a density of 2500 cells/ml in a volume of 100 μl culture media and allowed to adhere overnight at 37° C., 5% CO2. The following day, compound plates were prepared by making nine-point 3.3-fold dilutions in DMSO with a top concentration of 10 mM. Compounds were further diluted in culture media and 11 μl was added to the cells (final top assay concentration was 10 μM and DMSO was […]). Cells were incubated with compound at 37° C., 5% CO2 for 7 days with media and compound replacement on day 4. Cell viability was assayed on Day 7 by adding 100 μl Cell Titer Glo (Promega) reagent to the plate to measure the amount of ATP present in the cells. Luminescence was read using the Envision 2104 Multilabel Reader (Perkin Elmer).
Results for the A549 proliferation assay of examples are summarized in Table 2, shown as IC50 values in μM.

Sequence of PRMT5/MEP50 protein complex (O14744 other isoform, or with tags, fused parts or gaps): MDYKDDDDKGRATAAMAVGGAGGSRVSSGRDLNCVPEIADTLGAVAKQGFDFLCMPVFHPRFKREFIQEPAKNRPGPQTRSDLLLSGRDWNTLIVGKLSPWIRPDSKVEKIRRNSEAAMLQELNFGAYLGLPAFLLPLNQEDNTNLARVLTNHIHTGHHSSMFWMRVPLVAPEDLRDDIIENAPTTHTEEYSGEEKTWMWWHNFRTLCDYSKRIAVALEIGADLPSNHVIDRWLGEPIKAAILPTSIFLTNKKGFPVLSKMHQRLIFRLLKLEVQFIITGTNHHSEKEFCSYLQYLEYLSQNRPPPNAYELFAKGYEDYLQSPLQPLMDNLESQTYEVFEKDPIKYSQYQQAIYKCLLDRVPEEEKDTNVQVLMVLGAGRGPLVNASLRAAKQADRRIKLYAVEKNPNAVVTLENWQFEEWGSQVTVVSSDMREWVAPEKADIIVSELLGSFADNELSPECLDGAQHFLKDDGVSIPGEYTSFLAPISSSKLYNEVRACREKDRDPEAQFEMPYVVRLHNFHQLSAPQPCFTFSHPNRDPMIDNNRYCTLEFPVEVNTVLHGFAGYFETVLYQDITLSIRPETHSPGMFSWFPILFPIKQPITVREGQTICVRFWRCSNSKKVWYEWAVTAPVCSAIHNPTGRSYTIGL
Sequence of PRMT5/MEP50 protein complex (Q9BQA1 whole entry partner): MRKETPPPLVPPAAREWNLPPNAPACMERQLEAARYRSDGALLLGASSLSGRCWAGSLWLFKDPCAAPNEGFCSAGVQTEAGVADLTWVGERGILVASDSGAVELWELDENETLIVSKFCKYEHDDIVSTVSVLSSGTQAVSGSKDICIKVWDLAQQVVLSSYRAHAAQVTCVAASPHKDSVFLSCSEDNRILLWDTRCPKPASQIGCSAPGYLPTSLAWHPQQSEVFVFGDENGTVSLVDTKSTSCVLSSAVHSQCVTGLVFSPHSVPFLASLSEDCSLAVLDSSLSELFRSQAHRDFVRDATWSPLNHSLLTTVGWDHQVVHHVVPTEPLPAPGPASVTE

As to `Nc1ncnc2c1c(I)cn2[C@@H]1O[C@H]([C@H](O)c2ccc(F)c(F)c2)[C@@H](O)[C@H]1O` [Example 119, (2R,3R,4S,5R)-2-(4-amino-5-iodo-7H-pyrrolo[2,3-d]pyrimidin-7-yl)-5-((R)-(3,4-difluorophenyl)(hydroxy)methyl)tetrahydrofuran-3,4-diol], the results for the half-inhibitory concentration (IC50) in experiment [1] and in experiment [2] were 0.007 µM and 0.322 µM, respectively.

As to `Cc1ncnc2c1ccn2[C@@H]1O[C@H]([C@@H](O)c2cc(F)cc(F)c2)[C@@H](O)[C@H]1O` [Example 37, (2R,3S,4R,5R)-2-((S)-(3,5-difluorophenyl)(hydroxy)methyl)-5-(4-methyl-7H-pyrrolo[2,3-d]pyrimidin-7-yl)tetrahydrofuran-3,4-diol], the figures for the half-inhibitory concentration (IC50) in experiment [1] and in experiment [2] were 2.64 µM and 3 µM, respectively.

On to `Nc1ncnc2c1ccn2[C@@H]1O[C@H]([C@H](O)c2ccc(F)c(F)c2)[C@@H](O)[C@H]1O` [Example 85, (2R,3R,4S,5R)-2-(4-amino-7H-pyrrolo[2,3-d]pyrimidin-7-yl)-5-((R)-(3,4-difluorophenyl)(hydroxy)methyl)tetrahydrofuran-3,4-diol], for which the IC50 turned out to be 0.001 µM in experiment [1] and 0.006 µM in experiment [2].

On to `Cc1ncnc2c1c(F)cn2[C@@H]1O[C@H]([C@H](O)c2ccc(F)cc2)[C@@H](O)[C@H]1O` [Example 98, (2R,3R,4S,5R)-2-(5-fluoro-4-methyl-7H-pyrrolo[2,3-d]pyrimidin-7-yl)-5-((R)-(4-fluorophenyl)(hydroxy)methyl)tetrahydrofuran-3,4-diol], for which the IC50 in experiment [1] is 0.018 µM; in experiment [2] it was 0.25 µM.

With `CC[C@@H](O)[C@H]1O[C@@H](n2ccc3c(C)ncnc32)[C@H](O)[C@@H]1O` [Example 40, (2R,3S,4R,5R)-2-((R)-1-hydroxypropyl)-5-(4-methyl-7H-pyrrolo[2,3-d]pyrimidin-7-yl)tetrahydrofuran-3,4-diol], the IC50 in experiment [1] turned out to be 0.114 µM; in experiment [2] it was 2.7 µM.

`Nc1ncnc2c1c(F)cn2[C@@H]1O[C@H]([C@H](O)c2ccc(F)c(F)c2)[C@@H](O)[C@H]1O` [Example 60, (2R,3R,4S,5R)-2-(4-amino-5-fluoro-7H-pyrrolo[2,3-d]pyrimidin-7-yl)-5-((R)-(3,4-difluorophenyl)(hydroxy)methyl)tetrahydrofuran-3,4-diol]: the IC50 came out at 0.002 µM in experiment [1] and 0.01 µM in experiment [2].
